Reference: patent US9695155B2, “Herbicidal substituted pyrimidinyloxy benzene compounds” (E. I. DU PONT DE NEMOURS AND COMPANY, priority 2013, dated 2017)

Tests used:
[1] = test system: giant foxtail; test: Test C preemergence; format: in vivo, Setaria faberii; details: Setaria faberi, pre-emergence
Outline: (§1)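 Greenhouse herbicide screen. Pre: seeded loam/sand, sprayed at planting. Post: 1–4 leaf plants (2–18 cm) in peat-based mix. Formulation: solvent mixture + surfactant, non-phytotoxic. Readout: visual % control vs untreated, 13–15 d; dash = not tested.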

[2] = test system: yellow nutsedge; test: Test C preemergence; format: in vivo, Cyperus esculentus; details: Cyperus, pre-emergence
Outline: as §1

[3] = test system: yellow nutsedge; test: Test C postemergence; format: in vivo, Cyperus esculentus
Outline: as §1

[4] = test system: giant foxtail; test: Test A preemergence; format: in vivo, Setaria faberii
Outline: (§2)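 Scoring: eye-based comparison with untreated controls, 0 for no effect through 100 for complete control, at about day 10. Treatments: directed soil spray preemergence; foliar spray postemergence on 2–10 cm plants at the one- to two-leaf stage. Medium: loam soil with sand.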

[5] = test system: wheat, winter; test: Test C postemergence; format: in vivo, Triticum aestivum
Outline: as §1

[6] = test system: pigweed; test: Test A preemergence; format: in vivo, Amaranthus retroflexus
Outline: as §2

[7] = test system: velvetleaf; test: Test A postemergence; format: in vivo, Abutilon theophrasti; details: 0 to 100 scale where 0 is no effect and 100 is complete control
Outline: as §2

[8] = test system: Italian ryegrass; test: Test C postemergence; format: in vivo, Lolium multiflorum
Outline: as §1

[9] = test system: rice; test: Test B flooded paddy test; format: in vivo, Oryza sativa; details: Oryza sativa; Flood, 250 g ai/ha; 0 to 100 scale where 0 is no effect and 100 is complete control; read-out: Plant response rating, Rice
Outline: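 Visual ratings on a 0 to 100 scale, where 100 means complete control, compared treated plants with controls after 13 to 15 days in a greenhouse. Treatment went into paddy water 3 cm deep over the soil, applied to plants at the 2-leaf stage.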

[10] = test system: pigweed; test: Test C preemergence; format: in vivo, Amaranthus retroflexus; details: Amaranthus retroflexus, pre-emergence
Outline: as §1

[11] = test system: kochia; test: Test C postemergence; format: in vivo, Kochia scoparia; details: Bassia scoparia, post-emergence
Outline: as §1

[12] = test system: corn; test: Test C postemergence; format: in vivo, Zea mays; details: Zea mays, post-emergence, postemergence
Outline: as §1

[13] = test system: barnyardgrass; test: Test C postemergence; format: in vivo, Echinochloa crus-galli; details: Echinochloa crus-galli, post-emergence
Outline: as §1

[14] = test system: barnyardgrass; test: Test C preemergence; format: in vivo, Echinochloa crus-galli; details: Echinochloa crus-galli, pre-emergence
Outline: as §1

[15] = test system: galium; test: Test C postemergence; format: in vivo, Galium aparine; details: Galium, post-emergence
Outline: as §1

[16] = 31 g ai/ha, postemergence, visual rating, scale 0 to 100 (0 no effect, 100 complete control), 13 to 15 days

How did the pest or weed control at 125 g/ha ([1]; 125 g ai/ha, preemergence, scale 0 (no effect) to 100 (complete control), read-out: Foxtail, Giant plant response rating) turn out when `FC(F)c1cccc(Oc2ncc(Cl)cn2)c1-n1cc(Br)cn1` [Compound 194, 2-[2-(4-bromo-1H-pyrazol-1-yl)-3-(difluoromethyl)phenoxy]-5-chloropyrimidine] was run?
Its pest or weed control at 125 g/ha is 100%.

What about the pest or weed control at 250 g/ha ([1]; 250 g ai/ha, preemergence, scale 0 (no effect) to 100 (complete control), read-out: Foxtail, Giant plant response rating) of the same molecule?
Its pest or weed control at 250 g/ha is 100%.

What about the pest or weed control at 62 g/ha ([1]; Preemergence, 62 g ai/ha, scale 0 to 100, 0 no effect, 100 complete control, read-out: Plant response rating, Foxtail, Giant) of the same molecule?
The pest or weed control at 62 g/ha was 90%.

And the pest or weed control at 125 g/ha ([2]; 125 g ai/ha, preemergence, scale 0 (no effect) to 100 (complete control), read-out: Nutsedge, Yellow plant response rating)?
Its pest or weed control at 125 g/ha is 0%.

What about the pest or weed control at 250 g/ha ([2]; 250 g ai/ha, preemergence, scale 0 (no effect) to 100 (complete control), read-out: Nutsedge, Yellow plant response rating) of the same molecule?
Its pest or weed control at 250 g/ha is 25%.

And the pest or weed control at 62 g/ha ([2]; Preemergence, 62 g ai/ha, scale 0 to 100, 0 no effect, 100 complete control, read-out: Plant response rating, Nutsedge, Yellow)?
Its pest or weed control at 62 g/ha is 0%.

What about the “Nutsedge, Yellow plant response rating” value [3, 16] of the same molecule?
The value was 5.

What about the pest or weed control at 125 g/ha ([3]; Cyperus, post-emergence, 125 g ai/ha, postemergence, visual rating, scale 0 to 100 (0 no effect, 100 complete control), read-out: Plant response rating, Nutsedge, Yellow) of the same molecule?
Its pest or weed control at 125 g/ha is 5%.

And the pest or weed control at 250 g/ha ([3]; Cyperus, post-emergence, 250 g ai/ha, postemergence, read-out: Plant response rating (0 to 100), Nutsedge, Yellow)?
Its pest or weed control at 250 g/ha is 5%.

And the pest or weed control at 62 g/ha ([3]; Cyperus, post-emergence, Postemergence, 62 g ai/ha, scale 0 to 100 (0 no effect, 100 complete control), 13 to 15 days, read-out: Plant response rating, Nutsedge, Yellow)?
Its pest or weed control at 62 g/ha is 5%.

What about the “Foxtail, Giant plant response rating (0 to 100 scale)” value ([4]; 125 g ai/ha) of the same molecule?
The value was 100.

What about the pest or weed control at 500 g/ha ([4]; Setaria faberi, pre-emergence, 240 h, 500 g ai/ha, 0 to 100 scale where 0 is no effect and 100 is complete control, read-out: Foxtail, Giant plant response rating) of the same molecule?
Its pest or weed control at 500 g/ha is 100%.

What about the “Wheat plant response rating” value [5, 16] of the same molecule?
Its value is 0.

And the plant injury at 125 g/ha ([5]; Triticum aestivum, post-emergence, 125 g ai/ha, postemergence, visual rating, scale 0 to 100 (0 no effect, 100 complete control), read-out: Plant response rating, Wheat)?
The plant injury at 125 g/ha was 0%.

And the plant injury at 250 g/ha ([5]; Triticum aestivum, post-emergence, 250 g ai/ha, postemergence, read-out: Plant response rating (0 to 100), Wheat)?
The plant injury at 250 g/ha was 5%.

And the plant injury at 62 g/ha ([5]; Triticum aestivum, post-emergence, Postemergence, 62 g ai/ha, scale 0 to 100 (0 no effect, 100 complete control), 13 to 15 days, read-out: Plant response rating, Wheat)?
Its plant injury at 62 g/ha is 0%.

What about the “Pigweed plant response rating (0 to 100 scale)” value ([6]; 125 g ai/ha) of the same molecule?
Its value is 100.

And the pest or weed control at 500 g/ha ([6]; Amaranthus retroflexus, pre-emergence, 240 h, 500 g ai/ha, 0 to 100 scale where 0 is no effect and 100 is complete control, read-out: Pigweed plant response rating)?
The pest or weed control at 500 g/ha was 100%.

And the “Velvetleaf plant response rating” value ([7]; 125 g ai/ha)?
Its value is 100.

What about the pest or weed control at 500 g/ha ([7]; Abutilon theophrasti, post-emergence, 240 h, 500 g ai/ha, read-out: Plant response rating, Velvetleaf) of the same molecule?
Its pest or weed control at 500 g/ha is 100%.

What about the “Ryegrass, Italian plant response rating” value [8, 16] of the same molecule?
Its value is 0.

What about the pest or weed control at 125 g/ha ([8]; Lolium multiflorum, post-emergence, 125 g ai/ha, postemergence, visual rating, scale 0 to 100 (0 no effect, 100 complete control), read-out: Plant response rating, Ryegrass, Italian) of the same molecule?
The pest or weed control at 125 g/ha was 0%.

What about the pest or weed control at 250 g/ha ([8]; Lolium multiflorum, post-emergence, 250 g ai/ha, postemergence, read-out: Plant response rating (0 to 100), Ryegrass, Italian) of the same molecule?
The pest or weed control at 250 g/ha was 15%.

What about the pest or weed control at 62 g/ha ([8]; Lolium multiflorum, post-emergence, Postemergence, 62 g ai/ha, scale 0 to 100 (0 no effect, 100 complete control), 13 to 15 days, read-out: Plant response rating, Ryegrass, Italian) of the same molecule?
Its pest or weed control at 62 g/ha is 0%.

And the plant injury at 250 g/ha [9]?
The plant injury at 250 g/ha was 0%.

And the pest or weed control at 125 g/ha ([10]; 125 g ai/ha, preemergence, scale 0 (no effect) to 100 (complete control), read-out: Pigweed plant response rating)?
Its pest or weed control at 125 g/ha is 100%.

What about the pest or weed control at 250 g/ha ([10]; 250 g ai/ha, preemergence, scale 0 (no effect) to 100 (complete control), read-out: Pigweed plant response rating) of the same molecule?
The pest or weed control at 250 g/ha was 100%.

And the pest or weed control at 62 g/ha ([10]; Preemergence, 62 g ai/ha, scale 0 to 100, 0 no effect, 100 complete control, read-out: Plant response rating, Pigweed)?
Its pest or weed control at 62 g/ha is 100%.

And the pest or weed control at 31 g/ha ([11]; 31 g ai/ha, postemergence, visual rating, scale 0 to 100 (0 no effect, 100 complete control), 13 to 15 days, read-out: Kochia plant response rating)?
The pest or weed control at 31 g/ha was 90%.

And the pest or weed control at 125 g/ha ([11]; 125 g ai/ha, postemergence, visual rating, scale 0 to 100 (0 no effect, 100 complete control), read-out: Plant response rating, Kochia)?
Its pest or weed control at 125 g/ha is 90%.

And the pest or weed control at 250 g/ha ([11]; 250 g ai/ha, postemergence, read-out: Plant response rating (0 to 100), Kochia)?
Its pest or weed control at 250 g/ha is 95%.

And the pest or weed control at 62 g/ha ([11]; Postemergence, 62 g ai/ha, scale 0 to 100 (0 no effect, 100 complete control), 13 to 15 days, read-out: Plant response rating, Kochia)?
The pest or weed control at 62 g/ha was 90%.

And the plant injury at 31 g/ha ([12]; 31 g ai/ha, visual rating, scale 0 to 100 (0 no effect, 100 complete control), 13 to 15 days, read-out: Corn plant response rating)?
The plant injury at 31 g/ha was 5%.

And the Corn plant response rating (crop injury, 0 = no effect, 100 = complete kill) at 125 g/ha ([12]; 125 g ai/ha, visual rating, scale 0 to 100 (0 no effect, 100 complete control))?
The Corn plant response rating (crop injury, 0 = no effect, 100 = complete kill) at 125 g/ha was 25%.

And the plant injury at 250 g/ha ([12]; 250 g ai/ha, read-out: Plant response rating (0 to 100), Corn)?
The plant injury at 250 g/ha was 30%.

What about the pest or weed control at 31 g/ha ([13]; 31 g ai/ha, postemergence, visual rating, scale 0 to 100 (0 no effect, 100 complete control), 13 to 15 days, read-out: Barnyardgrass plant response rating) of the same molecule?
The pest or weed control at 31 g/ha was 5%.

What about the pest or weed control at 125 g/ha ([13]; 125 g ai/ha, postemergence, visual rating, scale 0 to 100 (0 no effect, 100 complete control), read-out: Plant response rating, Barnyardgrass) of the same molecule?
The pest or weed control at 125 g/ha was 15%.

What about the pest or weed control at 250 g/ha ([13]; 250 g ai/ha, postemergence, read-out: Plant response rating (0 to 100), Barnyardgrass) of the same molecule?
The pest or weed control at 250 g/ha was 55%.

And the pest or weed control at 62 g/ha ([13]; Postemergence, 62 g ai/ha, scale 0 to 100 (0 no effect, 100 complete control), read-out: Plant response rating, Barnyardgrass)?
The pest or weed control at 62 g/ha was 5%.

And the pest or weed control at 125 g/ha ([14]; 125 g ai/ha, preemergence, scale 0 (no effect) to 100 (complete control), read-out: Barnyardgrass plant response rating)?
The pest or weed control at 125 g/ha was 100%.

What about the pest or weed control at 250 g/ha ([14]; 250 g ai/ha, preemergence, scale 0 (no effect) to 100 (complete control), read-out: Barnyardgrass plant response rating) of the same molecule?
Its pest or weed control at 250 g/ha is 100%.

What about the pest or weed control at 62 g/ha ([14]; Preemergence, 62 g ai/ha, scale 0 to 100, 0 no effect, 100 complete control, read-out: Plant response rating, Barnyardgrass) of the same molecule?
Its pest or weed control at 62 g/ha is 85%.

What about the pest or weed control at 31 g/ha ([15]; 31 g ai/ha, postemergence, visual rating, scale 0 to 100 (0 no effect, 100 complete control), 13 to 15 days, read-out: Galium plant response rating) of the same molecule?
The pest or weed control at 31 g/ha was 60%.

What about the pest or weed control at 125 g/ha ([15]; 125 g ai/ha, postemergence, visual rating, scale 0 to 100 (0 no effect, 100 complete control), read-out: Plant response rating, Galium) of the same molecule?
Its pest or weed control at 125 g/ha is 85%.

What about the pest or weed control at 250 g/ha ([15]; 250 g ai/ha, postemergence, read-out: Plant response rating (0 to 100), Galium) of the same molecule?
Its pest or weed control at 250 g/ha is 90%.

And the pest or weed control at 62 g/ha ([15]; Postemergence, 62 g ai/ha, scale 0 to 100 (0 no effect, 100 complete control), 13 to 15 days, read-out: Plant response rating, Galium)?
The pest or weed control at 62 g/ha was 65%.
